Test results reported in patent US12209144B2, “Cyclic peptides as proprotein convertase subtilisin/kexin type 9 (PCSK9) inhibitors for the treatment of metabolic disorders” (Novartis AG, priority 2018, dated 2025).
Bridge positions count the residues as written; N and C are the ends. Square brackets hold non-standard residues; d marks the D form. Peptide text beside a SMILES is read from it. Phe(4-CF3) = N[C@@H](Cc1ccc(C(F)(F)F)cc1)C(=O)O; Bip = N[C@@H](Cc1ccc(-c2ccccc2)cc1)C(=O)O; NMeF = CN[C@@H](Cc1ccccc1)C(=O)O; NMeE = CN[C@@H](CCC(=O)O)C(=O)O; NMeA = CN[C@@H](C)C(=O)O

Target: human PCSK9 (Homo sapiens, UniProt Q8NBP7)
Sequence (Q8NBP7 153-692): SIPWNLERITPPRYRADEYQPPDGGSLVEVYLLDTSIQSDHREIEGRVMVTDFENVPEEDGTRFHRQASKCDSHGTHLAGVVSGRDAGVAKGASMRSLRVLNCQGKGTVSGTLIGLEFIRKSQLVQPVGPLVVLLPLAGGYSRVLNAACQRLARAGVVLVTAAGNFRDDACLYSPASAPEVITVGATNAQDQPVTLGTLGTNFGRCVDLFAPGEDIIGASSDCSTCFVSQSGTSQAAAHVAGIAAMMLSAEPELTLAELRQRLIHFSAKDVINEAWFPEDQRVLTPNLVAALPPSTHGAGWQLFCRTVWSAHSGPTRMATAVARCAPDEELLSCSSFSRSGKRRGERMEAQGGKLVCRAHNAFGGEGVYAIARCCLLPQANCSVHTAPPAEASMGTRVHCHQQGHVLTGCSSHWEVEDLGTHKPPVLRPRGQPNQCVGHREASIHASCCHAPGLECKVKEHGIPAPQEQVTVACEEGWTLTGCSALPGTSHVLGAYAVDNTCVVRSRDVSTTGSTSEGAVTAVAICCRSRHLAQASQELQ
Sequence (Q8NBP7 31-152 partner limits assumed): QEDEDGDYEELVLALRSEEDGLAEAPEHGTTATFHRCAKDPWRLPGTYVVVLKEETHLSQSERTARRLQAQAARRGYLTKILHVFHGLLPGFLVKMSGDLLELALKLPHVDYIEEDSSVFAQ
Experiment: PCSK9 ligand binding assay (TR-FRET): interference with binding of human PCSK9 to human LDLR
Conditions: for Maximum % inhibition: PCSK9 FRET assay, efficacy (Amax), 0% = DMSO, 100% = 1 uM unlabeled human PCSK9; for IC50: TR-FRET, Human PCSK9 Alexa Fluor 647 and Human LDLR extracellular domain-Europium Kryptate
Description: The activity of cyclic polypeptides according to the disclosure as PCSK9 can be assessed using a time resolved fluorescence resonance energy transfer (TR-FRET) assay. This time resolved fluorescence resonance energy transfer (TR-FRET) assay measures the ability of a cyclic polypeptides of the disclosure to interfere with the binding of human PCSK9 to human LDLR, providing measures of both potency (IC50) and efficacy (Amax).
Solutions of varying concentrations are prepared by diluting a cyclic polypeptide of the disclosure in dimethylsulfoxide (DMSO) and the resulting solutions are pipetted into a plate. DMSO is used as a negative control. An intermediate plate is prepared in by transferring a known amount of each polypeptide solution and of the control from the compound plate into a corresponding well containing assay buffer and mixing thoroughly. A third plate is then prepared to be used for the assay by adding Human PCSK9 Alexa Fluor 647, followed by a known amount of each solution from the intermediate plate. Unlabeled human PCSK9 in assay buffer containing DMSO is used as a positive control for the assay. Following incubation, Human LDLR extracellular domain-Europium Kryptate is added to each well of the assay plate and the resulting mixture is incubated for an additional period of time. The TR-FRET signal is measured and the FRET ratio (FRET/Europium) is used to calculate the IC50 and Amax of the cyclic polypeptides.
The PCSK9 binding of the cyclic polypeptides of the disclosure were measured using a time resolved fluorescence resonance energy transfer (TR-FRET) assay. This time resolved fluorescence resonance energy transfer (TR-FRET) assay measures the ability of a cyclic polypeptide of the disclosure to interfere with the binding of human PCSK9 to human LDLR, providing measures of both potency (IC50) and efficacy (Amax).
• Human PCSK9 • Human PCSK9 Alexa Fluor 647 • Human LDLR extracellular domain-Europium Kryptate • Proxi plate-low volume assay plate (PerkinElmer #6008280) • Greiner V-bottom (Greiner BioOne #781280) • Assay Buffer • 20 mM HEPES, pH 7.5 • 150 mM NaCl • 1 mM CaCl2 • 0.01% v/v Tween20 • 0.01% w/v BSA
A master compound plate was prepared in a Greiner V bottom plate by diluting cyclic polypeptides of the disclosure in dimethylsulfoxide to the correct concentration for the desired top concentration based on the desired final concentration: for a 30 uM final concentration the master plate concentration is 1.5 mM (68 uL DMSO+12 uL 10 mM of a cyclic polypeptide of the disclosure), for a 10 uM final concentration the master plate concentration is 0.5 mM (76 uL DMSO+4 uL 10 mM of a cyclic polypeptide of the disclosure), for a 3 uM final concentration the master plate concentration is 150 uM (69 uL DMSO+1 uL 10 mM a cyclic peptide of the disclosure). These solutions were pipetted into columns 1 and 11 of the compound plate. Threefold serial dilutions were generated in columns 2-10 and 12-20 of the compound plate by transferring 10 uL into 20 μL of DMSO. Columns 21 and 22 of the compound plate were negative controls containing DMSO alone.
An intermediate plate was generated in a Greiner V bottom plate by transferring 8 uL from each well of the master plate into a corresponding well containing 92 μL of assay buffer and mixing thoroughly.
A Proxi plate-low volume assay plate was used for the assay. To all wells of the plate was added 10 μL of 16 nM Human PCSK9 Alexa Fluor 647, followed by 5 uL from the intermediate plate. […] Following a 30 minute incubation, 5 μL of 4 nM Human LDLR extracellular domain-Europium Kryptate was added and the mixture was incubated for an additional 2 hours.
The TR-FRET signal was measured on an EnVision or PheraStar instrument with a […] delay, 330 nm excitation and 665 nm emission (FRET), and 330 nm excitation and 615 nm (Europium). The FRET ratio (FRET/Europium) was used for calculations. […]

| Maximum % inhibition | IC50 | Structure (SMILES) |
| --- | --- | --- |
| 65% | – | CC(C)[C@@H]1NC(=O)[C@H](Cc2ccccc2)NC(=O)CSC[C@@H](C(=O)NCC(N)=O)NC(=O)[C@@H]2CCCN2C(=O)[C@H](CO)NC(=O)[C@H](CC(N)=O)NC(=O)[C@H](CCC(=O)O)N(C)C(=O)[C@H](Cc2ccc(-c3ccccc3)cc2)NC(=O)[C@H](Cc2ccccc2)N(C)C(=O)[C@H](CO)NC(=O)[C@H]([C@@H](C)O)NC(=O)[C@H]([C@@H](C)O)NC(=O)[C@H](CC(=O)O)NC1=O [Example 1-1] ({CH2CO}-FVDTTS[NMeF][Bip][NMeE]NSPCG-NH2; thioether N-13) |
| 41% | – | CC(C)[C@@H]1NC(=O)[C@H](Cc2ccccc2)NC(=O)CSC[C@@H](C(=O)NCC(N)=O)NC(=O)[C@@H]2CCCN2C(=O)[C@H](CCCNC(=N)N)NC(=O)[C@H](CC(=O)O)NC(=O)[C@H](C)N(C)C(=O)[C@H](Cc2ccc(-c3ccccc3)cc2)NC(=O)[C@H](C)N(C)C(=O)[C@H](Cc2ccc(-c3ccccc3)cc2)NC(=O)[C@H]([C@@H](C)O)NC(=O)[C@H]([C@@H](C)O)NC(=O)[C@H](CO)NC1=O [Example 1-2, Ac*-F-V-S-T-T-B-(N-Me)A-B-(N-Me)A-D-R-P-C*-G-NH2] |
| 55% | – | CC(C)[C@@H]1NC(=O)[C@H](Cc2ccccc2)NC(=O)CSC[C@@H](C(=O)NCC(N)=O)NC(=O)[C@@H]2CCCN2C(=O)[C@H](CO)NC(=O)[C@H](CC(N)=O)NC(=O)[C@H](C)N(C)C(=O)[C@H](Cc2ccc(-c3ccccc3)cc2)NC(=O)[C@H](Cc2ccccc2)N(C)C(=O)[C@H](CO)NC(=O)[C@H]([C@@H](C)O)NC(=O)[C@H]([C@@H](C)O)NC(=O)[C@H](CC(=O)O)NC1=O [Example 1-3, Ac*-F-V-D-T-T-S-(N-Me)F-B-(N-Me)A-N-S-P-C*-G-NH2] ({CH2CO}-FVDTTS[NMeF][Bip][NMeA]NSPCG-NH2; thioether N-13) |
| 60% | – | CC(C)[C@@H]1NC(=O)[C@H](Cc2ccccc2)NC(=O)CSC[C@@H](C(=O)NCC(N)=O)NC(=O)[C@@H]2CCCN2C(=O)[C@H](Cc2cnc[nH]2)NC(=O)[C@H](CC(N)=O)NC(=O)[C@H](C)N(C)C(=O)[C@H](Cc2ccc(-c3ccccc3)cc2)NC(=O)[C@H](C)N(C)C(=O)[C@H](Cc2ccc(O)cc2)NC(=O)[C@H]([C@@H](C)O)NC(=O)[C@H](CO)NC(=O)[C@H](CC(=O)O)NC1=O [Example 1-4, Ac*-F-V-D-S-T-Y-(N-Me)A-B-(N-Me)A-N-H-P-C*-G-NH2] ({CH2CO}-FVDSTY[NMeA][Bip][NMeA]NHPCG-NH2; thioether N-13) |
| 95% | – | CC(C)[C@@H]1NC(=O)[C@H](Cc2ccccc2)NC(=O)CSC[C@@H](C(=O)NCC(N)=O)NC(=O)[C@@H]2CCCN2C(=O)[C@H](CO)NC(=O)[C@H](CCC(=O)O)NC(=O)[C@H](C)N(C)C(=O)[C@H](Cc2ccc(-c3ccccc3)cc2)NC(=O)[C@H](Cc2ccccc2)N(C)C(=O)[C@H](CO)NC(=O)[C@H]([C@@H](C)O)NC(=O)[C@H]([C@@H](C)O)NC(=O)[C@H](CC(=O)O)NC1=O [Example 1-5, Ac*-F-V-D-T-T-S-(N-Me)F-B-(N-Me)A-E-S-P-C*-G-NH2] ({CH2CO}-FVDTTS[NMeF][Bip][NMeA]ESPCG-NH2; thioether N-13) |
| 97% | 12 nM | CC(C)[C@@H]1NC(=O)[C@H](Cc2ccccc2)NC(=O)CSC[C@@H](C(=O)NCC(N)=O)NC(=O)[C@@H]2CCCN2C(=O)[C@H](CO)NC(=O)[C@H](CCC(=O)O)NC(=O)[C@H](C)N(C)C(=O)[C@H](Cc2ccc(C(F)(F)F)cc2)NC(=O)[C@H](Cc2ccccc2)N(C)C(=O)[C@H](CO)NC(=O)[C@H]([C@@H](C)O)NC(=O)[C@H]([C@@H](C)O)NC(=O)[C@H](CC(=O)O)NC1=O [Example 1-6, Ac*-F-V-D-T-T-S-(N-Me)F-(p-CF3)F-(N-Me)A-E-S-P-C*-G-NH2] ({CH2CO}-FVDTTS[NMeF][Phe(4-CF3)][NMeA]ESPCG-NH2; thioether N-13) |
| 60% | 410 nM | CC(C)[C@@H]1NC(=O)[C@H](Cc2ccccc2)NC(=O)CSC[C@@H](C(=O)NCC(N)=O)NC(=O)[C@@H]2CCCN2C(=O)[C@H](CO)NC(=O)[C@H](CCCCN)NC(=O)[C@H](C)N(C)C(=O)[C@H](Cc2ccc(-c3ccccc3)cc2)NC(=O)[C@H](C)N(C)C(=O)[C@H](CO)NC(=O)[C@H]([C@@H](C)O)NC(=O)[C@H]([C@@H](C)O)NC(=O)[C@H](CC(=O)O)NC1=O [Example 1-7, Ac*-F-V-D-T-T-S-(N-Me)A-B-(N-Me)A-K-S-P-C*-G-NH2] ({CH2CO}-FVDTTS[NMeA][Bip][NMeA]KSPCG-NH2; thioether N-13) |
| 58% | – | CC(C)[C@@H]1NC(=O)[C@H](Cc2ccccc2)NC(=O)CSC[C@@H](C(=O)NCC(N)=O)NC(=O)[C@@H]2CCCN2C(=O)[C@H](CO)NC(=O)[C@H](CC(=O)O)NC(=O)[C@H](C)N(C)C(=O)[C@H](Cc2ccc(-c3ccccc3)cc2)NC(=O)[C@H](C)N(C)C(=O)[C@H](Cc2ccc(-c3ccccc3)cc2)NC(=O)[C@H]([C@@H](C)O)NC(=O)[C@H]([C@@H](C)O)NC(=O)[C@H](CO)NC1=O [Example 1-8, Ac*-F-V-S-T-T-B-(N-Me)A-B-(N-Me)A-D-S-P-C*-G-NH2] ({CH2CO}-FVSTT[Bip][NMeA][Bip][NMeA]DSPCG-NH2; thioether N-13) |
| 35% | – | CC(C)[C@@H]1NC(=O)[C@H](Cc2ccccc2)NC(=O)CSC[C@@H](C(=O)NCC(N)=O)NC(=O)[C@@H]2CCCN2C(=O)[C@H](CCCNC(=N)N)NC(=O)[C@H](CC(=O)O)NC(=O)[C@H](C)N(C)C(=O)[C@H](Cc2ccc(-c3ccccc3)cc2)NC(=O)[C@H](Cc2ccccc2)N(C)C(=O)[C@H](CO)NC(=O)[C@H]([C@@H](C)O)NC(=O)[C@H]([C@@H](C)O)NC(=O)[C@H](CO)NC1=O [Example 1-9, Ac*-F-V-S-T-T-S-(N-Me)F-B-(N-Me)A-D-R-P-C*-G-NH2] ({CH2CO}-FVSTTS[NMeF][Bip][NMeA]DRPCG-NH2; thioether N-13) |
| 90% | – | CC(C)[C@@H]1NC(=O)[C@H](Cc2ccccc2)NC(=O)CSC[C@@H](C(=O)NCC(N)=O)NC(=O)[C@@H]2CCCN2C(=O)[C@H](CO)NC(=O)[C@H](CCC(=O)O)NC(=O)[C@H](C)N(C)C(=O)[C@H](Cc2ccc(-c3ccccc3)cc2)NC(=O)[C@H](C)N(C)C(=O)[C@H](Cc2ccc(-c3ccccc3)cc2)NC(=O)[C@H]([C@@H](C)O)NC(=O)[C@H]([C@@H](C)O)NC(=O)[C@H](CC(=O)O)NC1=O [Example 1-10, Ac*-F-V-D-T-T-B-(N-Me)A-B-(N-Me)A-E-S-P-C*-G-NH2] ({CH2CO}-FVDTT[Bip][NMeA][Bip][NMeA]ESPCG-NH2; thioether N-13) |
| 55% | – | CC(C)[C@@H]1NC(=O)[C@H](Cc2ccccc2)NC(=O)CSC[C@@H](C(=O)NCC(N)=O)NC(=O)[C@@H]2CCCN2C(=O)[C@H](CCCNC(=N)N)NC(=O)[C@H](CCC(=O)O)NC(=O)[C@H](C)N(C)C(=O)[C@H](Cc2ccc(C(F)(F)F)cc2)NC(=O)[C@H](C)N(C)C(=O)[C@H](Cc2ccc(C(F)(F)F)cc2)NC(=O)[C@H]([C@@H](C)O)NC(=O)[C@H]([C@@H](C)O)NC(=O)[C@H](CO)NC1=O [Example 1-11, Ac*-F-V-S-T-T-(p-CF3)F-(N-Me)A-(p-CF3)F-(N-Me)A-E-R-P-C*-G-NH2] ({CH2CO}-FVSTT[Phe(4-CF3)][NMeA][Phe(4-CF3)][NMeA]ERPCG-NH2; thioether N-13) |
